# Measurements taken from patent US20250255867A1 (Kadmon Corporation, LLC, priority 2022, published 2025).
# Experiments:
# patients with cGVHD = assay: Example 1 phase IIa dose-finding study: cGVHD response per 2014 NIH Consensus Criteria (ORR, BOR, DOR, TTR, organ response); type: in vivo, human; settings: for DOR Median (95% CI): responder population
# Experimental: Eligible patients were allogeneic bone marrow transplant or allogeneic hematopoietic cell transplant (alloHCT) recipients of age ≥18 years with persistent cGVHD manifestations after having received one to three prior systemic lines of therapy and who were receiving corticosteroid treatment with or without a calcineurin inhibitor and/or concurrent extracorporeal photopheresis.
# (FIG. 1) Before enrollment of the subsequent cohort, safety data in each previous cohort were analyzed after eight patients reached two months of treatment to assure that there was no safety signal. […] No safety concerns were identified, allowing for planned dose escalation.
# Progression was defined per the 2014 NIH cGVHD Consensus Criteria. Long-term follow-up was conducted every 8 weeks until study closeout. […] Screening was conducted within 28 days of the first study dose. Response was initially assessed after two cycles; however, this was amended to evaluate response on day 1 of each cycle, starting at cycle 2 day 1.
# All responses were assessed by the investigators.
# Percentage of Participants With Overall Response (OR): OR was defined as the percentage of participants with complete response (CR) or partial response (PR). The OR determination of chronic graft versus host disease (cGVHD) was based on cGVHD response assessment performed by clinicians as per the 2014 National Institutes of Health (NIH) Consensus Development Project for Clinical Trials in cGVHD criteria. CR was defined as the resolution of all manifestations in each organ or site. PR was defined as the improvement in at least 1 organ or site without progression in any other organ or site; and cGVHD progression was defined as the clinically meaningful worsening in 1 or more organs regardless of improvement in other organs.
# Duration of Response (DOR). The DOR was defined as the time (in weeks) from first documentation of response to the time of first documentation of deterioration from best response (e.g., CR to PR, or PR to […]). LOR included the response status of unchanged (LOR-U), mixed (LOR-M), or progression (LOR-P). […] Kaplan-Meier was used for the analysis.
# Best Overall Response (BOR). BOR was defined as the participants with either a CR or PR or lack of response (LOR), where LOR included the response status of unchanged (LOR-U), mixed (LOR-M), or progression (LOR-P). BOR was assessed per the 2014 NIH Consensus Development Project for Clinical Trials in cGVHD criteria. […] Analysis was performed on mITT population.
# Best Response in Each Individual Organ. Best response was defined as the percentage of participants with CR or PR. Response was assessed per the 2014 NIH Consensus Development Project for Clinical Trials in cGVHD criteria; CR was defined as the resolution of all manifestations in each organ or site; PR was defined as the improvement in at least 1 organ or site without progression in any other organ or site. Organ response assessment was performed on 9 individual organs: skin, eyes, mouth, esophagus, upper GI, lower GI, liver, lungs, and joints and fascia. […] Analysis was performed on mITT population. Here, ‘number analyzed’=participants with available data for each specified category.
# subjects with cGVHD = assay: Example 2: corticosteroid and other immunosuppressant reduction/discontinuation; type: in vivo, human
# Experimental: All responses were assessed by the study site investigators.
# [1] = Cohort 1 200 mg QD, 17 analyzed
# [2] = Cohort 2 200 mg BID, 16 analyzed
# [3] = Cohort 3 400 mg QD, 21 analyzed
# [4] = 200 mg daily (n = 66), mITT population
# [5] = 200 mg twice daily (n = 66), mITT population
# [6] = Total (N = 132), mITT population
structure (smiles),measurement,setting,value
"CC(C)NC(=O)COc1cccc(-c2nc(Nc3ccc4[nH]ncc4c3)c3ccccc3n2)c1 [Belumosudil, 2-{3-[4-(1H-indazol-5-ylamino)-2-quinazolinyl]phenoxy}-N-(propan-2-yl) acetamide]","Best response (CR or PR) in skin, percentage of participants",patients with cGVHD; Cohort 1 200 mg QD,(23%)
same,"Best response in esophagus, percentage of participants",patients with cGVHD; Cohort 1 200 mg QD,(50%)
same,"Best response in joints and fascia, percentage of participants",patients with cGVHD; Cohort 1 200 mg QD,(55%)
same,"ORR, % (95% CI)",patients with cGVHD; Cohort 1 200 mg QD,65%
same,"ORR, refractory to previous LOT",patients with cGVHD; Cohort 1 200 mg QD,"7/11 (64, 31 to %"
same,"ORR, severe cGVHD",patients with cGVHD; Cohort 1 200 mg QD,"8/12 (67, 35 to %"
same,"ORR, ≤2 prior LOTs subgroup",patients with cGVHD; Cohort 1 200 mg QD,"10/15 (67, 38 to %"
same,"ORR, ≤4 organs involved",patients with cGVHD; Cohort 1 200 mg QD,"4/8 (50, 16 to %"
same,BOR: CR,patients with cGVHD; [1],0 participants
same,BOR: LOR-P,patients with cGVHD; [1],2 participants
same,BOR: LOR-U,patients with cGVHD; [1],2 participants
same,BOR: PR,patients with cGVHD; [1],11 participants
same,"ORR, % (95% CI)","patients with cGVHD; Cohort 1 200 mg QD, listed as KD025",65 (38 to 86) %
same,DOR Median (95% CI),patients with cGVHD; Cohort 1 200 mg QD,40 (8-na* %) weeks
same,"Best response (CR or PR) in skin, percentage of participants",patients with cGVHD; Cohort 2 200 mg BID,(17%)
same,"Best response in liver, percentage of participants",patients with cGVHD; Cohort 2 200 mg BID,(50%)
same,"ORR, % (95% CI)",patients with cGVHD; Cohort 2 200 mg BID,69%
same,"ORR, refractory to previous LOT",patients with cGVHD; Cohort 2 200 mg BID,"6/9 (67, 30 to %"
same,"ORR, severe cGVHD",patients with cGVHD; Cohort 2 200 mg BID,"9/14 (64, 35 to %"
same,"ORR, ≤2 prior LOTs subgroup",patients with cGVHD; Cohort 2 200 mg BID,"5/8 (63, 25 to %"
same,"ORR, ≤4 organs involved",patients with cGVHD; Cohort 2 200 mg BID,"8/10 (80, 44 to %"
same,BOR: CR,patients with cGVHD; [2],0 participants
same,BOR: LOR-P,patients with cGVHD; [2],1 participants
same,BOR: LOR-U,patients with cGVHD; [2],3 participants
same,BOR: PR,patients with cGVHD; [2],11 participants
same,"ORR, % (95% CI)","patients with cGVHD; Cohort 2 200 mg BID, listed as KD025",69 (41 to 89) %
same,DOR Median (95% CI),patients with cGVHD; Cohort 2 200 mg BID,11 (2-35%) weeks
same,"ORR, % (95% CI)",patients with cGVHD; Cohort 3 400 mg QD,57%
same,"ORR, refractory to previous LOT",patients with cGVHD; Cohort 3 400 mg QD,"9/15 (60, 32 to %"
same,"ORR, severe cGVHD",patients with cGVHD; Cohort 3 400 mg QD,"8/16 (50, 25 to %"
same,"ORR, ≤2 prior LOTs subgroup",patients with cGVHD; Cohort 3 400 mg QD,"8/12 (67, 35 to %"
same,"ORR, ≤4 organs involved",patients with cGVHD; Cohort 3 400 mg QD,"7/9 (78, 40 to %"
same,BOR: CR,patients with cGVHD; [3],0 participants
same,BOR: LOR-M,patients with cGVHD; [3],0 participants
same,BOR: LOR-P,patients with cGVHD; [3],1 participants
same,BOR: LOR-U,patients with cGVHD; [3],4 participants
same,BOR: PR,patients with cGVHD; [3],12 participants
same,"ORR, refractory to previous LOT",patients with cGVHD; Total,63%
same,"ORR, severe cGVHD",patients with cGVHD; Total,60%
same,"ORR, ≤2 prior LOTs subgroup",patients with cGVHD; Total,66%
same,"ORR, ≤4 organs involved",patients with cGVHD; Total,70%
same,"ORR, % (95% CI)","patients with cGVHD; Total N=54, listed as KD025",65 (51 to 77) %
same,"ORR, refractory to previous LOT","patients with cGVHD; Total, listed as KD025","22/35 (63, 45 to %"
same,"ORR, severe cGVHD","patients with cGVHD; Total, listed as KD025","25/42 (60, 43 to %"
same,"ORR, ≤2 prior LOTs subgroup","patients with cGVHD; Total, listed as KD025","23/35 (66, 48 to %"
same,"ORR, ≤4 organs involved","patients with cGVHD; Total, listed as KD025","19/27 (70, 50 to %"
same,ORR among patients with nonsevere cGVHD,patients with cGVHD; pooled cohorts,83%
same,"Mean change in CS dose from baseline, Nonresponder",subjects with cGVHD; 200 mg daily,−22%
same,"Mean change in CS dose from baseline, Responder",subjects with cGVHD; 200 mg daily,−49%
same,CS discontinuation,subjects with cGVHD; [4],13 (20) n (%)
same,"Mean change in CS dose from baseline, Overall",subjects with cGVHD; [4],−43%
same,Median CS reduction from baseline to greatest reduction,subjects with cGVHD; [4],38%
same,Proportion with CS reduction,subjects with cGVHD; [4],42 (64) n (%)
same,"Mean change in CS dose from baseline, Nonresponder",subjects with cGVHD; 200 mg twice daily,−10%
same,"Mean change in CS dose from baseline, Responder",subjects with cGVHD; 200 mg twice daily,−58%
same,"Mean change in CS dose from baseline, Overall",subjects with cGVHD; [5],−48%
same,Median CS reduction from baseline to greatest reduction,subjects with cGVHD; [5],50%
same,"Mean change in CS dose from baseline, Nonresponder",subjects with cGVHD; Total,−16%
same,"Mean change in CS dose from baseline, Responder",subjects with cGVHD; Total,−54%
same,"Mean change in CS dose from baseline, Overall",subjects with cGVHD; [6],−45%
same,Median CS reduction from baseline to greatest reduction,subjects with cGVHD; [6],50%
same,Subjects who discontinued CNI therapy,subjects with cGVHD; in vivo,22%
same,Subjects who discontinued mycophenolate mofetil,subjects with cGVHD; in vivo,21%
same,Subjects who discontinued sirolimus,subjects with cGVHD; in vivo,20%
same,Mean corticosteroid dose reduction,subjects with cGVHD; mITT,45%
same,Mean corticosteroid dose reduction,subjects with cGVHD; responders,54%
